We go through two compounds from US20220125778A1 (priority 2019, published 2022).

Where two headings read alike, the source gives them in different places.

In this experiment the target is β-glucuronidase activity in live E. coli (4MUG to 4MU conversion) (Escherichia coli, UniProt P05804). Briefly: Cell-based E. coli assay with 4MUG substrate, with and without esterase pre-treatment of prodrug. The settings on record: for IC50: live E. coli. On the procedure:
For esterase activation, the prodrug is treated with 5 mg/mL esterase for 30 mins at 37° C. to cleave the ester bonds yielding the glucuronide moiety. Following treatment, an inhibitor titration ranging from 10 uM to 10 pM is mixed and preincubated with live E. coli for 5 mins or 4 hours at 37° C. in a microplate with assay buffer (HEPES pH 7, NaCl). Chemically synthesized SY65-G is included as a positive control. Following preincubation, 4-methylumbelliferyl glucuronide (4MUG) is added at a final concentration of 100 uM to the cell and inhibitor mixture. The conversion of 4MUG to 4MU is detected via fluorescence (Ex./Em.: 360/460). […] The untreated prodrug is not active.

Where [1] appears, read: 5 min preincubation, no esterase treatment, read-out: Potency, pre-incubation time 5 min.
Where [2] appears, read: 5 min preincubation, treated with 5 mg/mL esterase for 30 mins at 37° C., read-out: Potency, pre-incubation time 5 min, + Esterase.
Where [3] appears, read: 4 hour preincubation, no esterase treatment, read-out: Potency, pre-incubation time 4 hour.
[4] abbreviates: 4 hour preincubation, treated with 5 mg/mL esterase for 30 mins at 37° C., read-out: Potency, pre-incubation time 4 hour, + Esterase.

β-glucuronidase activity in live E. coli (4MUG to 4MU conversion), sequence (P05804 whole entry): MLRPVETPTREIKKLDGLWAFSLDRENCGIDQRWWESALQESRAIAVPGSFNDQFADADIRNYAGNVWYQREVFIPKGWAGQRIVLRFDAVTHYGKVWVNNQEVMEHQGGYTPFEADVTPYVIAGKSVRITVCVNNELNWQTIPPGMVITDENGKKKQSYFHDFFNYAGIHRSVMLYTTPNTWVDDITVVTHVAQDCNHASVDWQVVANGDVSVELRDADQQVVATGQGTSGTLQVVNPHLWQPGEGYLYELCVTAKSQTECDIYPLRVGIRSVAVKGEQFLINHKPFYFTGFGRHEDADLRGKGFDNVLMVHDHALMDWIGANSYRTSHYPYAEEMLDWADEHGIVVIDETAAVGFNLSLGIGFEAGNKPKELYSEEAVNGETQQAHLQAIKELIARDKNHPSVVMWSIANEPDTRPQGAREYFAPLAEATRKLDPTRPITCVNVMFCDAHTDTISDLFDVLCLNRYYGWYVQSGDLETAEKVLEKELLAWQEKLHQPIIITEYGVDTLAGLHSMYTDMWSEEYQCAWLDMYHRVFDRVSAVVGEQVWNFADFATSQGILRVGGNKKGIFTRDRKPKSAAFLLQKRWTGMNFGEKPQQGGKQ

On to `Cc1cc(C)c2[nH]c(=O)c(CN(CCO[C@@H]3O[C@H](C(=O)O)[C@@H](O)[C@H](O)[C@H]3O)C(=O)Nc3ccccc3C(C)C)cc2c1` [SY65-G, (2S,3S,4S,5R,6R)-6-[2-[(6,8-dimethyl-2-oxo-1H-quinolin-3-yl)methyl-[(2-isopropylphenyl)carbamoyl]amino]ethoxy]-3,4,5-trihydroxy-tetrahydropyran-2-carboxylic acid], for which the IC50 reads like this: under setting [1], 125 nM; under setting [2], 93 nM; under setting [3], 0.53 nM; under setting [4], 0.57 nM.

As for `COC(=O)[C@H]1O[C@@H](OCCN(Cc2cc3cc(C)cc(C)c3[nH]c2=O)C(=O)Nc2ccccc2C(C)C)[C@H](OC(C)=O)[C@@H](OC(C)=O)[C@@H]1OC(C)=O` [SY65-G-Ac, Methyl (2S,3S,4S,5R,6R)-3,4,5-triacetoxy-6-[2-[(6,8-dimethyl-2-oxo-1H-quinolin-3-yl)methyl-[(2-isopropylphenyl)carbamoyl]amino]ethoxy]tetrahydropyran-2-carboxylate], the “Potency of esterase treated prodrug versus glucuronide positive control” value (esterase treated) was “just as potent as the glucuronide positive control”. For the same compound, the IC50 was > 10000 nM under setting [1], 156 nM under setting [2], > 10000 nM under setting [3] and 0.52 nM under setting [4]. For the same compound, for the setting “without esterase treatment”, the “Activity of untreated prodrug in cell-based assay” value is listed as “not active”.
